Entries after “also recorded” stand apart in the source; their conditions may differ.
How the values were obtained:
[1] = Blood chemistry and blood cell counts in treated infected mice; format: in vivo, C57/B6 mice; settings: 25 mg/kg daily oral gavage
Description: Referring to FIG. 9A-E, daily drug treatment was started 48 hours before intranasal infection with CA09 at an infectious dose of […] and maintained for 7 days. […] Data represent 3 mice per group.

[2] = test system: NHBE cells; assay: Seahorse metabolic flux (ECAR, OCR, PPR) in NHBE cells; format: cell-based, human; settings: drug 4 hours then infection at 1 MOI with CA04, read 17 hours later
Description: OCR and ECAR were measured with the XF-24 Extracellular Flux Analyzer (Seahorse Bioscience, North Billerica, Mass.). Briefly, 2.5×10^5 cells/well were seeded with XF media (non-buffered DMEM with 25 mM glucose, 2 mM L-glutamine, and 1 mM sodium pyruvate) in a Cell-Tak (BD Biosciences, San Jose, Calif.)-coated plate 17 hours after infection and 1 hour before loading the plate into the instrument.
Referring to FIG. 6A-C, NHBE cells were grown and differentiated in 24-well Seahorse plates and left untreated (control), infected for 17 hours at MOI 1 with either viable virus or a […] virus (CA09 or BPL, respectively) or stimulated with TLR agonists lipopolysaccharide (LPS), polyinosinic polycytidylic acid (PolyIC), or Resiquimod (R848). After treatment, the extracellular acidification rate (ECAR) (6A), oxygen consumption rate (OCR) (6B), and proton production rate (PPR) (6C) of NHBE cells were monitored for 2 hours. Error bars represent standard deviation from the mean of triplicate samples, where data represent 3 independent experiments.
Referring to FIG. 12C-E, NHBE cells were seeded in XF24 SEAHORSE cell […] for 4 hours followed by infection at 1 MOI with CA04. 17 hours later plates were processed and read on Seahorse following manufactures protocol.

[3] = test system: CA09; assay: High-throughput modified TCID50 viral titer of drug-screen supernatant on MDCK cells (area under the curve); format: cell-based, influenza virus H1N1 strain A/CA/04/2009; settings: supernatant of CA09-infected NHBE cells titrated on MDCK cells
[4] = test system: PI3K/mTOR pathway; assay: Immunoblot of PI3K/mTOR pathway phosphorylation in infected NHBE cells; format: cell-based, human
[5] = test system: cMyc; assay: Influenza-induced cMyc expression in NHBE cells; format: cell-based, human; settings: NHBE cells infected with CA04 up to 17 hours at MOI 1
Description: Referring to FIG. 13B, NHBE cells were infected with CA04 for up to 17 hours at MOI 1, harvested at indicated time and RNA purified from lysates then quantified with […].

[6] = test system: NHBE cells; assay: Seahorse spare respiratory and glycolytic capacity of infected NHBE cells; format: cell-based, human; settings: 10 nM BEZ235 for 1 hr, infected 17 hours at MOI 1 with CA04
[7] = test system: CA09; assay: In vivo drug tests in CA09-infected mice: weight loss, survival, lung viral titer; set-up: species or system C57/B6 mice
[8] = Whole-body plethysmography of respiratory parameters in infected treated mice
[9] = test system: CA09; assay: microbe, parasite or virus in culture; format: cell-based, influenza virus H1N1 strain A/CA/04/2009
[10] = test system: NHBE cells; assay: cells; format: cell-based, human
[11] = infected mice, whole-body plethysmography
[12] = NHBE, read-out: TCID50 (per mL)

With `Cn1c(=O)n(-c2ccc(C(C)(C)C#N)cc2)c2c3cc(-c4cnc5ccccc5c4)ccc3ncc21` [NVP-BEZ235] the tolerability [1] was “well tolerated”, the blood amylase ([1]; bled on day 7) was “significantly altered” and the blood protein levels ([1]; bled on day 7) was “unchanged”. The “dehydration as measured by blood electrolyte levels and renal function” value ([1]; bled on day 7) was “stable”, the “immune cell proliferation in the blood” value ([1]; bled on day 7) was “no impact” and the “signs of toxicity in the blood chemistry analysis or in critical blood cell counts” value ([1]; bled on day 7) was “no signs of toxicity”. The “influenza induced metabolic flux (ECAR, OCR, PPR)” value [2] was “reverse influenza induced metabolic flux to untreated levels; also recorded: reversed”, the “viral titers in the high-throughput screening” value [3] was “reduced” and the 4E-BP1 phosphorylation [4] was “completely abolished”. For the same compound, the 70S6K phosphorylation [4] was “completely abolished”, the mTOR phosphorylation [4] was “reduces” and the “phosphorylation of PRAS40” value [4] was “time dependent decrease”. The “influenza-induced cMyc expression” value [5] was “ablates”, the “glycolytic capacity of infected NHBE” value [6] was “slightly reducing; also recorded: slightly reduces” and the “spare respiratory capacity of infected NHBE” value [6] was “restores”. For the same compound, the “viral titer from the lungs (HA titer)” value ([7]; four days following infection, NVP-BEZ235 25 mg/kg oral gavage, titered on MDCK cells, 25 mg/kg) was “significant reduction; also recorded: significantly lower”, the influenza-induced mortality ([7]; infected adult mice) was “reduces” and the weight loss ([7]; mice infected intranasally with CA09, daily drug for 7 days from 2 days before infection (NVP-BEZ235 25 mg/kg oral gavage; clotrimazole 120 mg/kg ip; α-mangostin 8 mg/kg ip)) was “no significant effects; also recorded: no effect”. The survival ([7]; mice infected intranasally with CA09, daily drug for 7 days from 2 days before infection, monitored 15 days) was “profound improvement; also recorded: dramatically improved”, the respiratory function ([8]; infected adult mice) was “augments” and the breath frequency [8, 11] was “decreases”. For the same compound, the expiration time [8, 11] was “increases”, the inspiration time [8, 11] was “increases” and the mid-expiratory tidal flow [8, 11] was “reduction”. The minute volume [8, 11] was “decreases”, the tidal flow [8, 11] was “decreases” and the “Viral Titer Prophylactic” value [9] was “Reduced”. The “viral titers in NHBE cells (validated drug hits)” value [9] was “consistently reduced; also recorded: consistent reduction; also recorded: one of the most significant drops; also recorded: highest efficacy”, the log reduction at 10 pM [9, 12] was 0.75 and the log reduction at 0.0001 µM [9, 12] was 0.42. For the same compound, the log reduction at 0.001 µM [9, 12] was 0.5, the log reduction at 0.01 µM [9, 12] was 0.53 and the log reduction at 0.1 µM [9, 12] was 0.29. It also gave a log reduction at 1 µM [9, 12] of 0.51, a log reduction at 10 µM [9, 12] of 0.97 and a log reduction at 100 µM [9, 12] of 0.91. For the same compound, the “Cell Death Prophylactic” value [10] was “C = V”, the “Cell Death Therapeutic” value [10] was “C > V” and the “NHBE cell survival / cell death after infection” value [10] was “differentially affected; also recorded: differential effects”.

— patent US11083725B2 (priority 2014, dated 2021)
